Series [1] concerns CT26. Briefly: Antiproliferative activity against mouse CT26 cells assessed as reduction in cell viability incubated for 48 hrs by CCK-8 assay. The series is classed as functional, cell-based. Conditions: CT26, 48 h.
The test system of series [2] is B16-F10. Briefly: Antiproliferative activity against mouse B16-F10 cells assessed as reduction in cell viability incubated for 48 hrs by CCK-8 assay. The series is classed as functional, cell-based. Conditions: B16-F10, 48 h. Background: Formazan colour is commonly taken as a measure of viable cells.
Series [3] deals with Jurkat. Briefly: Antiproliferative activity against human Jurkat cells assessed as reduction in cell viability incubated for 48 hrs by CCK-8 assay. Format: functional, cell-based.
In series [4] the test system is CT26. Briefly: Synergistic antiproliferative activity against mouse CT26 cells assessed as reduction in cell viability incubated for 48 hrs in presence of doxorubicin by CCK-8 assay. The series is classed as functional, cell-based. To be noted: CT26, 48 h.
Series [5] concerns B16-F10. Briefly: Synergistic antiproliferative activity against mouse B16-F10 cells assessed as reduction in cell viability incubated for 48 hrs in presence of doxorubicin by CCK-8 assay. The series is classed as functional, cell-based. Conditions: B16-F10, 48 h.
Series [6] deals with Jurkat. Briefly: Synergistic antiproliferative activity against human Jurkat cells assessed as reduction in cell viability incubated for 48 hrs in presence of doxorubicin by CCK-8 assay. Format: functional, cell-based.
For the next series, the system named is HepG2. Briefly: Inhibition of DNA damage repair in human HepG2 cells assessed as reduction in gammaH2AX expression level at 20 uM by Western blot analysis. The series is classed as functional, cell-based.
Series [7] concerns Jurkat. Briefly: Induction of cell cycle arrest in human Jurkat cells assessed as decrease in S phase cells at 1 uM incubated for 24 hrs in presence of doxorubicin by PI staining based flow cytometric analysis. Format: functional.
Series [8] deals with Jurkat. Briefly: Induction of cell cycle arrest in human Jurkat cells assessed as increase in G2/M phase cells at 1 uM incubated for 24 hrs in presence of doxorubicin by PI staining based flow cytometric analysis. Format: functional.
The subject of series [9] is Cell membrane. Briefly: Induction of mitochondrial membrane potential loss in human Jurkat cells at 1 uM incubated for 24 hrs by JC-1 staining based flow cytometric analysis. The series is classed as cell membranes. For orientation: Flow cytometry measures light scatter and fluorescence of single cells or particles in a stream.
Series [10] relates to Cell membrane. Briefly: Induction of mitochondrial membrane potential loss in human Jurkat cells at 1 uM incubated for 24 hrs in presence of doxorubicin by JC-1 staining based flow cytometric analysis. The series is classed as cell membranes.
The target of series [11] is DNA-dependent protein kinase catalytic subunit (Homo sapiens, UniProt P78527). Briefly: Inhibition of human full-length DNA-PK using EPPLSQEAFADLWKK as substrate incubated for 60 mins in presence of ATP by ADP-Glo kinase assay. On the technique in general: ADP-Glo turns the ADP formed in a reaction into a luminescent signal.
DNA-dependent protein kinase catalytic subunit, sequence (P78527 whole entry): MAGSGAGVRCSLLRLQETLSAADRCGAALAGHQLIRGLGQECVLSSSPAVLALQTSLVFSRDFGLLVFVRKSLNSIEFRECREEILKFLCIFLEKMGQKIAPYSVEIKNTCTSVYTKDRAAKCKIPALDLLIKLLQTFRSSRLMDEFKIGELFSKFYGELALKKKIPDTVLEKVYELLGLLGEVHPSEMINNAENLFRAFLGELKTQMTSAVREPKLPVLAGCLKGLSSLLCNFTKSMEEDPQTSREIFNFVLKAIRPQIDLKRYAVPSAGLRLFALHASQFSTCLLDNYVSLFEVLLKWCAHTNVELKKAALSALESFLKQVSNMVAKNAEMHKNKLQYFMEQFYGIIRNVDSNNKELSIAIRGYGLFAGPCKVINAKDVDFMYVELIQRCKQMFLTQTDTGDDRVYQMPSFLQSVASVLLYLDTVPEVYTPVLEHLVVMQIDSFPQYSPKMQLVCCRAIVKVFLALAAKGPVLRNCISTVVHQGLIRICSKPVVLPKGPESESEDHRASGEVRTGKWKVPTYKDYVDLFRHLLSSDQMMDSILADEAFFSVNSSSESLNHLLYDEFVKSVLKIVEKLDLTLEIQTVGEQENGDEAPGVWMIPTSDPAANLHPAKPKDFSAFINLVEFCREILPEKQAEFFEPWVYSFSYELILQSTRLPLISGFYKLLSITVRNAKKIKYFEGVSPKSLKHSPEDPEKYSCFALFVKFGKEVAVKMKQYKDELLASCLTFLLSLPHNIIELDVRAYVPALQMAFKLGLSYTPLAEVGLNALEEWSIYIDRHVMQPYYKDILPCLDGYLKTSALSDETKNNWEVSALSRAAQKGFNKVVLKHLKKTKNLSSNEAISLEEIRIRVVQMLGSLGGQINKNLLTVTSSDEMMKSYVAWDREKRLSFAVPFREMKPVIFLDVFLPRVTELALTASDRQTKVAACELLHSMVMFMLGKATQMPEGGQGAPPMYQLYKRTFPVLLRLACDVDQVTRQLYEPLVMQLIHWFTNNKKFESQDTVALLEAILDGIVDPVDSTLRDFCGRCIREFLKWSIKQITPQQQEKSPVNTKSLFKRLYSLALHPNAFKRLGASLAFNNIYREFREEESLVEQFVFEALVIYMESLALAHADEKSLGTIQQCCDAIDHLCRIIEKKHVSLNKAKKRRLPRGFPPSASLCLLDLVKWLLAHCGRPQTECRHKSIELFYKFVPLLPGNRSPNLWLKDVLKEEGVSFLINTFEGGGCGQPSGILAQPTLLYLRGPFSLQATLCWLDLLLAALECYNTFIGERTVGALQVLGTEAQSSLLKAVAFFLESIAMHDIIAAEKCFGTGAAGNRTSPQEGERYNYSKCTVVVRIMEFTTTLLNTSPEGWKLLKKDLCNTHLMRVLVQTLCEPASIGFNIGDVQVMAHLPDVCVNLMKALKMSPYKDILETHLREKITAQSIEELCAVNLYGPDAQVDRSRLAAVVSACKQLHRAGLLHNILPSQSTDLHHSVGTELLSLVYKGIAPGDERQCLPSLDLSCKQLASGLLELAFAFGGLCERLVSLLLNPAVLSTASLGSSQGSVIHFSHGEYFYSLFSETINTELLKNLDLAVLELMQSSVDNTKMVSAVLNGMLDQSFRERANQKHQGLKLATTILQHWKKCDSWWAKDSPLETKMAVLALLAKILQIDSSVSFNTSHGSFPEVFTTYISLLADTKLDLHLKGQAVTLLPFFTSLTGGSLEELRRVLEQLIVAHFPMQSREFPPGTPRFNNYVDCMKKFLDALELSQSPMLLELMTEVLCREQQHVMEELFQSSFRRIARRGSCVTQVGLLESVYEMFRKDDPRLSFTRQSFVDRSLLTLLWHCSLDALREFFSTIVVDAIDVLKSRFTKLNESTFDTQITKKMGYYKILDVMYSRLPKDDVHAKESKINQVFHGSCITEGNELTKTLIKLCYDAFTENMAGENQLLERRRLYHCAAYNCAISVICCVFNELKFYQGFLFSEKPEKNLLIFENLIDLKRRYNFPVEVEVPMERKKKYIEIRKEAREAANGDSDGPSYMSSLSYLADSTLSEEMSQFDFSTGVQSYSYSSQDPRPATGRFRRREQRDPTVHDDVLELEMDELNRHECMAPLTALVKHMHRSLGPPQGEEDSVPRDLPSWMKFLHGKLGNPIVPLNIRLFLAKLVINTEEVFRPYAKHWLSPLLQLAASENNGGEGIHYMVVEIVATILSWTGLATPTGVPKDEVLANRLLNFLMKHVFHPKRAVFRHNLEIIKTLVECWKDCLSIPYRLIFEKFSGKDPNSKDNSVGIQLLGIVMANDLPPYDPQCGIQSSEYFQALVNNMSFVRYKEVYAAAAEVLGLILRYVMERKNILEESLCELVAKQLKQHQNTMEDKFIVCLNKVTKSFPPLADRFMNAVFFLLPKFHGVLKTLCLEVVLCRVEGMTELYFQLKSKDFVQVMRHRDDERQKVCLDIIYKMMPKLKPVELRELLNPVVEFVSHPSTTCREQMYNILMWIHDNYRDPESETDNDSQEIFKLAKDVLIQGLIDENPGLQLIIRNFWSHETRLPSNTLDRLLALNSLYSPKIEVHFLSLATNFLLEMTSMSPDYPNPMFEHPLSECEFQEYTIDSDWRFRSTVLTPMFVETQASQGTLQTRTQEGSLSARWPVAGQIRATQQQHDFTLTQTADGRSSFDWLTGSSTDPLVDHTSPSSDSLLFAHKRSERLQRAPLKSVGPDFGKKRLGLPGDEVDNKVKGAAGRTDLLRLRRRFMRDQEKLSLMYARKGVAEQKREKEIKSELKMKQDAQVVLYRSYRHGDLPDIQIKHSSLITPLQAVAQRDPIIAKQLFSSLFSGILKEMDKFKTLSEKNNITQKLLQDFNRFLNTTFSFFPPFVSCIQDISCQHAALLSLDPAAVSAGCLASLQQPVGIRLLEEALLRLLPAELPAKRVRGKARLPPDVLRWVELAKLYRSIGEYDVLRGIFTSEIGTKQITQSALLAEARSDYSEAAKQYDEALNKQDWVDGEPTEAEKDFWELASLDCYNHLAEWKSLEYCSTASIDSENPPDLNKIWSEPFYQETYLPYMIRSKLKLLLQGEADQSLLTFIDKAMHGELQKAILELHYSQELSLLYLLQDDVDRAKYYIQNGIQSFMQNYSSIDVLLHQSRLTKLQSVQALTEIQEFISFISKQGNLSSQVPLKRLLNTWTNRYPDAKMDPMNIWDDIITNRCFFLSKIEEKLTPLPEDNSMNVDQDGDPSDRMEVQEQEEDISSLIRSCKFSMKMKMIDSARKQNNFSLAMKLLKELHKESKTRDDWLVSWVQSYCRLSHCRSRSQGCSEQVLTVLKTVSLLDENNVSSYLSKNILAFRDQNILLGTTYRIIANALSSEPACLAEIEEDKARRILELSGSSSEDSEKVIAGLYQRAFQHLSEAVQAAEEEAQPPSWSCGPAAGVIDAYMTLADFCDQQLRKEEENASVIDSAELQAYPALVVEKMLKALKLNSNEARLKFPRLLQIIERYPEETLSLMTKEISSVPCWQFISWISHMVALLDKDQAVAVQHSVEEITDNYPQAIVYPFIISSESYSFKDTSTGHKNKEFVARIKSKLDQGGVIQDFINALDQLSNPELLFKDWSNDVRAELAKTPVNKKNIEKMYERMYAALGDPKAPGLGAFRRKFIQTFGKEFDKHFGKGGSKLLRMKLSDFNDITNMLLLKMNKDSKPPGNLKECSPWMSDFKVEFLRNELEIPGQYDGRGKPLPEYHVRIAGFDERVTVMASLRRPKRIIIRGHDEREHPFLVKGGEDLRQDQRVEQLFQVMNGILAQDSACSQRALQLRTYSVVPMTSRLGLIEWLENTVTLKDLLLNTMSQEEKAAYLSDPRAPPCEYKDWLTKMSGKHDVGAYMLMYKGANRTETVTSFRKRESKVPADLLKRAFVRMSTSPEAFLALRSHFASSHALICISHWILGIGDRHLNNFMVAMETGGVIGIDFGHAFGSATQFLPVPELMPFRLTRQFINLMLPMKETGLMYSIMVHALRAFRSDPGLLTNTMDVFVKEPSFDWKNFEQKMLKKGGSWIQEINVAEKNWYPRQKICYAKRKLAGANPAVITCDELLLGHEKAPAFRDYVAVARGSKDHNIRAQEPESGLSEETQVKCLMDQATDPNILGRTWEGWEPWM
Series [12] relates to CT26. Briefly: Antiproliferative activity against mouse CT26 cells assessed as inhibition of cell growth incubated for 48 hrs by CCK-8 assay relative to control. The series is classed as functional.
The test system of series [13] is B16-F10. Briefly: Antiproliferative activity against mouse B16-F10 cells assessed as inhibition of cell growth incubated for 48 hrs by CCK-8 assay relative to control. Format: functional.
Series [14] deals with Jurkat. Briefly: Antiproliferative activity against human Jurkat cells assessed as inhibition of cell growth incubated for 48 hrs by CCK-8 assay relative to control. The series is classed as functional.
Series [15] deals with CT26. Briefly: Antitumor activity against mouse CT26 cells implanted in BALB/c mouse assessed as tumor growth inhibition at 2.5 mg/kg, iv administered once a week for 21 days relative to control. The series is classed as functional. Conditions: CT26, 504 h, time 21 day, read-out: TGI.
The subject of series [16] is CT26. Briefly: Antitumor activity against mouse CT26 cells implanted in BALB/c mouse assessed as tumor growth inhibition at 10 mg/kg, ip administered once daily for 21 days relative to control. The series is classed as functional. To be noted: CT26, 504 h, time 21 day, read-out: TGI.
The nature of series [17]: Toxicity in BALB/c mouse implanted with mouse CT26 cells assessed as weight loss at 2.5 mg/kg, iv administered once a week for 21 days. The series is classed as organism-based. Conditions: in vivo, 504 h, time 21 day.
For series [18], the system named is B16-F10. Briefly: Antitumor activity against mouse B16-F10 cells implanted in C57BL/6 mouse assessed as tumor growth inhibition at 50 mg/kg, ip administered once daily for 13 days relative to control. Format: functional. To be noted: B16-F10, 312 h, time 13 day, read-out: TGI.
Series [19] can be described thus: Toxicity in C57BL/6 mouse implanted with mouse B16-F10 cells assessed as effect on body weight at 50 mg/kg, ip administered once daily for 13 days. The series is classed as organism-based. To be noted: in vivo, 312 h, time 13 day.
Series [20] has as its system B16-F10. Briefly: Immunomodulatory activity in mouse B16-F10 cells implanted in C57BL/6 mouse assessed as percentage of CD3 positive CD4 positive cells in tumor at 50 mg/kg, ip administered once daily for 13 days by flow cytometric analysis (reference value: 0.86%). The series is classed as functional. Conditions: time 13 day.
For series [21], the system named is B16-F10. Briefly: Immunomodulatory activity in mouse B16-F10 cells implanted in C57BL/6 mouse assessed as percentage of CD3 positive CD8 positive cells in tumor at 50 mg/kg, ip administered once daily for 13 days by flow cytometric analysis (reference value: 0.99%). The series is classed as functional. Conditions: time 13 day.

Activity calls are given as the source filed them. The rule behind the calls is not given here.

Results on 17 compounds are retold here after ChEMBL document CHEMBL5543136, “Discovery of Novel Heterotricyclic Compounds as DNA-Dependent Protein Kinase (DNA-PK) Inhibitors with Enhanced Chemosensitivity, Oral Bioavailability, and the Ability to Potentiate Cancer Immunotherapy” (J Med Chem, 2024).

As a reminder, the IC50 is the concentration at which inhibition is half-maximal. On to `Cc1cc2ncnn2cc1Nc1ncc2c(n1)n(C1CCOCC1)c(=O)n2C` [AZD-7648], for which the half-inhibitory concentration (IC50) with CT26 [1] was determined as 18.8 µM; in the series on B16-F10 [2] it was 33.6 µM; with Jurkat [3], 12.3 µM; in the series with CT26 [4] it was 6.74 µM; in the series on B16-F10 [5], 11.4 µM; with Jurkat [6] it was 0.09 µM. Besides, the inhibition result with HepG2 is “Active”. In addition, the result in the series on Jurkat [7], in the series on Jurkat [8] and in the series with Cell membrane [10] was Active. In addition, the outcome with Cell membrane [9] was inactive.
For the compound `Cc1nnc2n1-c1cnc(Nc3ccc4nccnc4c3)nc1N(C1CCOCC1)C2`, the IC50 in series [11] was 0.0518 µM; with CT26 [1], 19.4 µM; in the series with B16-F10 [2] it was 26.9 µM; with Jurkat [3], 0.9 µM; with CT26 [4] it was 9.7 µM; in the series with B16-F10 [5] it was 26.9 µM. Moreover, in the series on Jurkat [6], the IC50 is 0.17 µM.
Consider `Cc1cc2cccnc2cc1Nc1ncc2c(n1)N(C1CCOCC1)Cc1nccn1-2`, for which the half-inhibitory concentration (IC50) in series [11] came to 0.00035 µM; in the series with CT26 [1] it was 8.9 µM; in the series on B16-F10 [2], 19.5 µM; in the series on Jurkat [3] it was 0.7 µM; in the series on CT26 [4], 3.1 µM; in the series on B16-F10 [5], 7.5 µM. Further, the half-maximal inhibitory concentration (IC50) with Jurkat [6] amounted to 0.04 µM.
On to `Cc1cnc(-c2cnn(C)c2)cc1Nc1ncc2c(n1)N(C1CCOCC1)Cc1nccn1-2`, for which the IC50 in series [11] was 0.0294 µM; in the series with CT26 [1], over 50 µM; in the series on B16-F10 [2], over 50 µM; in the series with Jurkat [3], 15 µM.
With `COc1ccc(Nc2ncc3c(n2)N(C2CCOCC2)Cc2nnc(C)n2-3)c(C)c1`, the IC50 in series [11] was 0.0153 µM; in the series on CT26 [1], over 50 µM; in the series on B16-F10 [2], over 50 µM; in the series with Jurkat [3] it was over 50 µM.
On to `c1cn2c(n1)CN(C1CCOCC1)c1nc(Nc3ccc4nccnc4c3)ncc1-2`, for which the half-maximal inhibitory concentration (IC50) in series [11] is 0.0628 µM; in the series on CT26 [1] it was 27.6 µM; in the series on B16-F10 [2] it was 31.9 µM; with Jurkat [3] it was 0.8 µM; in the series with CT26 [4], 14.9 µM; in the series on B16-F10 [5], 20.9 µM. In addition, the IC50 in the series with Jurkat [6] was 0.21 µM.
`COc1cccc2c1C(=O)c1c(O)c3c(c(O)c1C2=O)C[C@@](O)(C(=O)CO)C[C@@H]3O[C@H]1C[C@H](N)[C@H](O)[C@H](C)O1` [DOXORUBICIN]: the “inhibition (INH)” value in the series on CT26 [12] stood at 9.75%; in the series on B16-F10 [13] it was 6.2%; in the series on Jurkat [14], 23%. The inhibition in vivo at 2.5 mg/kg in the series on CT26 [15] was determined as 25.9%. The inhibition in vivo at 10 mg/kg in the series on CT26 [16] was determined as 30.8%. For the same compound, the Activity result in [17] is listed as “Non-Toxic”.
Regarding `Cc1cnc(-c2cnn(C)c2)cc1Nc1ncc2c(n1)N(C1CCOCC1)Cc1nnc(C)n1-2`, the half-maximal inhibitory concentration (IC50) in [11] is 0.0214 µM; in the series with CT26 [1], over 50 µM; in the series on B16-F10 [2], over 50 µM; with Jurkat [3], 5.7 µM.
With `Cc1cnc(-c2cnn(C)c2)cc1Nc1ncc2c(n1)N(C1CCOCC1)Cc1nncn1-2`, the IC50 in [11] is 0.0261 µM; in the series with CT26 [1], over 50 µM; in the series on B16-F10 [2], over 50 µM; in the series with Jurkat [3], over 50 µM.
On to `Cc1cc2cccnc2cc1Nc1ncc2c(n1)N(C1CCOCC1)Cc1nnc(C)n1-2`, for which the IC50 in [11] worked out at 0.00062 µM; in the series with CT26 [1], 5.2 µM; with B16-F10 [2], 12.9 µM; with Jurkat [3], 0.8 µM; with CT26 [4] it was 1.5 µM; with B16-F10 [5] it was 6.5 µM. In addition, the IC50 in the series on Jurkat [6] was determined as 0.05 µM.
On to `Cc1cc2ncnn2cc1Nc1ncc2c(n1)N(C1CCOCC1)Cc1nccn1-2`, for which the IC50 is 0.0036 µM in series [11], over 50 µM with CT26 [1], over 50 µM in the series on B16-F10 [2] and 9.4 µM with Jurkat [3].
In the case of `COc1ccc(Nc2ncc3c(n2)N(C2CCOCC2)Cc2nccn2-3)c(C)c1`, the 50% inhibitory concentration (IC50) in series [11] is 0.0089 µM; in the series with CT26 [1], 31.2 µM; in the series on B16-F10 [2] it was 41.8 µM; in the series on Jurkat [3] it was 1.4 µM; in the series with CT26 [4], 15.3 µM; in the series with B16-F10 [5] it was 21.9 µM. Moreover, the IC50 with Jurkat [6] turned out to be 0.51 µM.
As for `c1cnc2cc(Nc3ncc4c(n3)N(C3CCOCC3)Cc3nncn3-4)ccc2n1`, the IC50 in series [11] is 0.0715 µM; in the series with CT26 [1] it was 45.9 µM; in the series with B16-F10 [2], over 50 µM; with Jurkat [3], 4.1 µM.
Consider `Cc1c(COc2cc(OCc3cccc(C#N)c3)c(CN3CCCCC3C(=O)NCCNC(=O)CCCC[C@@H]3SC[C@@H]4NC(=O)N[C@@H]43)cc2Cl)cccc1-c1ccccc1` (stereo partly specified), for which the inhibition in vivo at 50 mg/kg in the series on B16-F10 [18] is 48.2%. For the same compound, the Activity entry in series [19] is reported as “Non-Toxic”; in the series with B16-F10 [20] it was 3.23%; with B16-F10 [21] it was 3.53%.
On to `Cc1cc2ncnn2cc1Nc1ncc2c(n1)N(C1CCOCC1)CC(=O)N2C`, for which the concentration for half-maximal inhibition (IC50) was 32.9 µM in the series with CT26 [1]; 46.8 µM with B16-F10 [2]; 11.4 µM with Jurkat [3]; 9.35 µM in the series on CT26 [4]; 20.6 µM with B16-F10 [5]; 0.11 µM with Jurkat [6]. In the series with HepG2, the inhibition entry is “Active”. Also, the result in the series with Cell membrane [9] was inactive.
For `Cc1cc2ncnn2cc1Nc1ncc2c(n1)N(C1CCOCC1)Cc1nnc(C)n1-2`, the IC50 was 0.0084 µM in series [11], over 50 µM in the series with CT26 [1], over 50 µM with B16-F10 [2] and 25.2 µM with Jurkat [3].
As to `Cc1cc2ncnn2cc1Nc1ncc2c(n1)N(C1CCOCC1)Cc1nncn1-2`, the IC50 in series [11] is 0.0056 µM; in the series with CT26 [1], over 50 µM; in the series with B16-F10 [2], over 50 µM; with Jurkat [3], over 50 µM.
